Here are results for 45 molecules from paper PMC3265452 (PLoS Neglected Tropical Diseases, 2012).

Structures can show the parent of a compound that is named as a salt.

In one test the target is AaDOP2 (Aedes aegypti, UniProt H6D5H2). The test can be described thus: AaDOP2 antagonist screen of the LOPAC1280 library (HEK-CRELuc-Aadop2 cells, luminescence). In kind it is cell-based.
Chain of AaDOP2 (H6D5H2 1-476): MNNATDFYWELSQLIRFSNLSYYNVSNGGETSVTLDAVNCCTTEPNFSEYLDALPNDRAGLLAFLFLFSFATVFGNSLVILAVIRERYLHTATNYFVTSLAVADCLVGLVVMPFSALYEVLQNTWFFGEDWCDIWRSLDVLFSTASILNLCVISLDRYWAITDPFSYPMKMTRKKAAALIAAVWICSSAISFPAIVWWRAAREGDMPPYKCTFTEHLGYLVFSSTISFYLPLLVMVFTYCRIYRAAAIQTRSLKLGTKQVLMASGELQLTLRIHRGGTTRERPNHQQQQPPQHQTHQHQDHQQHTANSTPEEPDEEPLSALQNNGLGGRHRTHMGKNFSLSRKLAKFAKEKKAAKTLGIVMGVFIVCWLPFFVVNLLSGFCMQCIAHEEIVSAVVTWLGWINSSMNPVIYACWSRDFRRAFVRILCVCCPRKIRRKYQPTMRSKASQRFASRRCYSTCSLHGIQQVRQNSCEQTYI
Conditions: not given
Take `O=C(c1ccc2c(c1)OCCO2)N1CCCCC1` [Compound 352, CX 546]: the “Compound effect (percent receptor signaling in presence of test compound, relative lux units relative to the SCH23390 control)” value is given as 97.
Same read-out and setting: the value for `CNC(=O)[C@H]1O[C@@H](n2cnc3c(NCc4cccc(I)c4)nc(Cl)nc32)[C@H](O)[C@@H]1O` [Compound 353, Chloro-IB-MECA] was 120.
Still for that read-out and setting: with `O=[N+]([O-])c1cc2nc(O)c(O)nc2cc1[N+](=O)[O-]` [Compound 355, DNQX] the figure was 100.
On the same count and under the same terms, with `C[C@@H]1O[C@@H](O[C@H]2C[C@@H](O)[C@]3(CO)[C@H]4[C@H](O)C[C@]5(C)[C@@H]([C@@H]6COC(=O)C6)CC[C@]5(O)[C@@H]4CC[C@]3(O)C2)[C@H](O)[C@H](O)[C@H]1O` [Compound 356, Dihydroouabain] the figure was 56; with `CC(CCc1ccc(O)cc1)NCCc1ccc(O)c(O)c1` (stereo not shown) [Compound 357, Dobutamine hydrochloride], 98; with `CC(C)[C@H]1CN[C@H](C(=O)O)[C@H]1CC(=O)O` [Compound 358, Dihydrokainic acid], 94.
For the molecule `C[N+](C)(C)CCCCCCCCCC[N+](C)(C)C.[Br-].[Br-]` [Compound 359, Decamethonium dibromide], the “Compound effect (percent receptor signaling in presence of test compound, relative lux units relative to the SCH23390 control)” value was 98.
The same measure, in the same setting: with `Nc1ncnc2c1ncn2[C@@H]1O[C@H](COP(=O)(O)OP(=O)(O)OP(=O)(O)OP(=O)(O)OC[C@H]2O[C@@H](n3cnc4c(N)ncnc43)[C@H](O)[C@@H]2O)[C@@H](O)[C@H]1O` [Compound 360, P1,P4-Di(adenosine-5')tetraphosphate triammonium] the figure was 75; with `N=C(N)N1CCc2ccccc2C1` [Compound 361, Debrisoquin sulfate], 86; with `Cc1cn([C@H]2C=C[C@@H](CO)O2)c(=O)[nH]c1=O` [Compound 362, 2',3'-didehydro-3'-deoxythymidine], 99.
`O=C(CCCN1CC=C(n2c(=O)[nH]c3ccccc32)CC1)c1ccc(F)cc1` [Compound 363, Droperidol]: the “Compound effect (percent receptor signaling in presence of test compound, relative lux units relative to the SCH23390 control)” value is 58.
The same measure, in the same setting: with `COC(=O)[C@@H](N)Cc1ccc(O)c(O)c1.Cl` [Compound 364, L-3,4-Dihydroxyphenylalanine methyl ester hydrochloride] the figure was 90; with `OC[C@H]1NC[C@@H](O)[C@@H]1O` [Compound 365, 1,4-Dideoxy-1,4-imino-D-arabinitol], 103.
The same measure, in the same setting: the value for `O=[N+]([O-])c1ccc(O[C@@H]2O[C@H](CO)[C@@H](O)[C@H](O)[C@H]2F)c([N+](=O)[O-])c1` [Compound 366, 2,4-Dinitrophenyl 2-fluoro-2-deoxy-beta-D-glucopyranoside] was 75; that for `COc1ccc([C@@H]2Sc3ccccc3N(CCN(C)C)C(=O)[C@@H]2OC(C)=O)cc1` [Compound 369, Diltiazem hydrochloride] was 107; that for `Br.COc1ccc2c(c1)[C@]13CCCC[C@@H]1[C@H](C2)N(C)CC3.O` [Compound 370, Dextromethorphan hydrobromide monohydrate] was 102.
Same read-out and setting: the value for `O=C(OCCN1CCCCC1)c1c[nH]c2ccccc12` [Compound 371, SB 203186] was 84.
Regarding `CN1C[C@H](C(=O)N[C@]2(C)O[C@@]3(O)[C@@H]4CCCN4C(=O)[C@H](Cc4ccccc4)N3C2=O)C[C@@H]2c3cccc4[nH]cc(c34)C[C@H]21` [Compound 372, Dihydroergotamine methanesulfonate], the “Compound effect (percent receptor signaling in presence of test compound, relative lux units relative to the SCH23390 control)” value came to 46.
With `c1ccc2c(c1)[I+]c1ccccc1-2` [Compound 373, Diphenyleneiodonium chloride], the “Compound effect (percent receptor signaling in presence of test compound, relative lux units relative to the SCH23390 control)” value worked out at 36.
Same read-out and setting: the value for `CC(=O)C(C)=O` [Compound 375, 2,3-Butanedione] was 88.
Regarding `N[C@H](C(=O)O)c1cc(O)cc(O)c1` [Compound 377, (S)-3,5-Dihydroxyphenylglycine], the “Compound effect (percent receptor signaling in presence of test compound, relative lux units relative to the SCH23390 control)” value is recorded as 93.
The same measure, in the same setting: with `Cc1cc(N)c2ccccc2[n+]1CCCCCCCCCC[n+]1c(C)cc(N)c2ccccc21` [Compound 378, Dequalinium dichloride] the figure was 73; with `CN(C)CCOC(C)(c1ccccc1)c1ccccn1` (stereo not shown) [Compound 379, Doxylamine succinate], 85.
On the same count and under the same terms, with `CNCCCN1c2ccccc2CCc2ccccc21` [Compound 380, Desipramine hydrochloride] the figure was 29; with `O=C1NC(=O)C(c2ccccc2)(c2ccccc2)N1` [Compound 382, 5,5-Diphenylhydantoin], 96; with `O=P(O)(O)C(Cl)(Cl)P(=O)(O)O` [Compound 384, Clodronic acid], 83.
Still for that read-out and setting: with `O=C1NC(=O)C(c2ccccc2)(c2ccccc2)N1` [Compound 385, Phenytoin sodium] the figure was 77; with `CC(C)NC[C@H](O)COc1cccc2[nH]ccc12` [Compound 387, S(-)-Pindolol], 91.
For `COc1cc(C(=O)OCCCN2CCCN(CCCOC(=O)c3cc(OC)c(OC)c(OC)c3)CC2)cc(OC)c1OC` [Compound 389, Dilazep hydrochloride], the “Compound effect (percent receptor signaling in presence of test compound, relative lux units relative to the SCH23390 control)” value is 62.
With `C[C@]12CC[C@H](OS(=O)(=O)[O-])CC1=CC[C@@H]1[C@@H]2CC[C@]2(C)C(=O)CC[C@@H]12.[Na+]` [Compound 390, Dehydroisoandrosterone 3-sulfate sodium], the “Compound effect (percent receptor signaling in presence of test compound, relative lux units relative to the SCH23390 control)” value is 94.
Take `Cn1c(=O)[nH]c2ncn(C)c2c1=O` [Compound 391, 1,7-Dimethylxanthine]: the “Compound effect (percent receptor signaling in presence of test compound, relative lux units relative to the SCH23390 control)” value was 94.
On to `COC1=C(OC)C(=O)c2ccccc2C1=O` [Compound 392, 2,3-Dimethoxy-1,4-naphthoquinone], for which the “Compound effect (percent receptor signaling in presence of test compound, relative lux units relative to the SCH23390 control)” value amounted to 45.
The same measure, in the same setting: with `O=c1ccc2ccc(O)c(O)c2o1` [Compound 393, Daphnetin] the figure was 74; with `CCC(=O)N1CCN(C(=O)c2ccccc2)CC1` [Compound 394, DM 235], 101; with `CC1(C)CCC=[N+]1[O-]` [Compound 395, 5,5-Dimethyl-1-pyrroline-N-oxide], 94.
The same measure, in the same setting: with `Nc1ccn([C@H]2CC[C@@H](CO)O2)c(=O)n1` [Compound 396, 2',3'-dideoxycytidine] the figure was 102; with `O=c1c2ccccc2[nH]c(=S)n1CCN1CCC(=C(c2ccc(F)cc2)c2ccc(F)cc2)CC1` [Compound 397, Diacylglycerol Kinase Inhibitor II], 74.
As for `CNCCc1ccc(O)c(O)c1.Cl` [Compound 399, N-Methyldopamine hydrochloride], the “Compound effect (percent receptor signaling in presence of test compound, relative lux units relative to the SCH23390 control)” value worked out at 94.
The same measure, in the same setting: with `C[N+]1(C)CCN(c2ccccc2)CC1.[I-]` [Compound 400, 1,1-Dimethyl-4-phenyl-piperazinium iodide] the figure was 87; with `CC(C)N(CCC(C(N)=O)(c1ccccc1)c1ccccn1)C(C)C` (stereo not shown) [Compound 402, Disopyramide phosphate], 104.

The test is the same for the next values; noted with them: 10 µM compound, 300 nM dopamine, 2 hr.
Turning to `Cc1nc2sccn2c(=O)c1CCN1CCC(=C(c2ccccc2)c2ccc(F)cc2)CC1` [Compound 401, Diacylglycerol kinase inhibitor I], the “% of the SCH23390 effect (percent inhibition of receptor response relative to the SCH23390 control)” value was determined as 90%.

Still in this test, the particulars now being: 10 µM compound, 300 nM dopamine, 2 hr; hit = compound effect <20.
Take `COc1cccc(OC)c1OCCNCC1COc2ccccc2O1.Cl` (stereo not shown) [Compound 354, WB-4101 hydrochloride]: the “Compound effect (percent receptor signaling in presence of test compound, relative lux units relative to the SCH23390 control)” value is given as 101%.
For the molecule `OC[C@H]1O[C@@H](n2cnc3ccccc32)[C@H](O)[C@@H]1O` [Compound 367, D-ribofuranosylbenzimidazole], the “Compound effect (percent receptor signaling in presence of test compound, relative lux units relative to the SCH23390 control)” value stood at 24%.
On the same count and under the same terms, with `CN(C)C(=O)N=NC(=O)N(C)C` [Compound 376, N,N,N',N'-Tetramethylazodicarboxamide] the figure was 93%; with `CN(C)C(N)=NCCC[C@H](N)C(=O)O.Cl` [Compound 383, N^G,N^G-Dimethylarginine hydrochloride], 106%.
On the same count and under the same terms, with `Cc1nc2sccn2c(=O)c1CCN1CCC(=C(c2ccccc2)c2ccc(F)cc2)CC1` [Compound 401, Diacylglycerol kinase inhibitor I] the figure was 10%.
